Measurements published in PubChem BioAssay (NCI).
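Exposure lasted 48 hours, with cells grown in 96-well plates and compounds tested at five concentrations. The concentration for full growth arrest is given as TGI.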

What was measured:
Assay in all cases: NCI-60 cell line screen, 48 h
[1] = tested on: CCRF-CEM leukemia
[2] = tested on: COLO 205 colon
[3] = tested on: HL-60(TB) leukemia
[4] = tested on: HOP-92 NSCLC
[5] = tested on: IGROV1 ovarian
[6] = tested on: MALME-3M melanoma
[7] = tested on: MCF7 breast
[8] = tested on: MOLT-4 leukemia
[9] = tested on: NCI-H460 lung
[10] = tested on: PC-3 prostate
[11] = tested on: RXF 393 renal
[12] = tested on: SF-295 CNS
[13] = tested on: SK-MEL-28 melanoma

Structure (SMILES) | TGI [1] | TGI [2] | TGI [3] | TGI [4] | TGI [5] | TGI [6] | TGI [7] | TGI [8] | TGI [9] | TGI [10] | TGI [11] | TGI [12] | TGI [13]
COC(=O)c1cc2c(c3c1CC(Cc1ccccc1)C3=O)CCC2 (centres undefined) | > 100 µM | > 100 µM | > 100 µM | 78 µM | > 100 µM | > 100 µM | > 100 µM | > 100 µM | > 100 µM | > 100 µM | > 100 µM | > 100 µM | > 100 µM
O=[N+]([O-])/C(C(Cl)=C(Cl)Cl)=C(/Cl)SCc1ccccc1 | 0.448 µM | 4.49 µM | 0.437 µM | 9.01 µM | 35.7 µM | 6.68 µM | 16 µM | 1.25 µM | 31.2 µM | 31.4 µM | 9.35 µM | 69.1 µM | 20.8 µM
CCCCc1ccc(-n2sc3ncc(C)cc3c2=O)cc1 | 50.5 µM | 46.3 µM | 32.7 µM | 87.5 µM | > 100 µM | 90.1 µM | 34.3 µM | > 100 µM | > 100 µM | 28.2 µM | 73.8 µM | > 100 µM | > 100 µM
O=C1CSC2(CC(/C=C/c3cccc([N+](=O)[O-])c3)=NN2c2cccc(S(=O)(=O)O)c2)N1c1nc2ccccc2s1 (centres undefined) | 48.3 µM | > 100 µM | 92.5 µM | 40.3 µM | 36.8 µM | > 100 µM | 37.2 µM | 64.9 µM | 63.2 µM | 51 µM | > 100 µM | – | > 100 µM
Cc1ccc2nc(N/N=C/c3sccc3C)cc(C)c2c1 | > 100 µM | > 100 µM | > 100 µM | > 100 µM | > 100 µM | – | > 100 µM | > 100 µM | – | > 100 µM | > 100 µM | – | > 100 µM
O=C(N/N=C/c1ccc([N+](=O)[O-])cc1)Nc1ccc(C(=O)O)cc1 | > 100 µM | 81 µM | > 100 µM | 92.1 µM | > 100 µM | > 100 µM | > 100 µM | > 100 µM | > 100 µM | > 100 µM | > 100 µM | 63.7 µM | > 100 µM
c1ccc2oc(-c3ccc(-c4nc5ccccc5o4)c4c3CC4)nc2c1 | > 100 µM | > 100 µM | > 100 µM | > 100 µM | > 100 µM | > 100 µM | > 100 µM | > 100 µM | > 100 µM | > 100 µM | > 100 µM | > 100 µM | > 100 µM
CC1(C)CC[C@]2(C)CC[C@]3(C)C(=CC[C@@H]4[C@@]5(C)CCC(=O)C(C)(C)[C@@H]5[C@H](O)C[C@]43C)[C@@H]2C1 | > 100 µM | 32 µM | > 100 µM | 31.7 µM | 32.1 µM | 31.6 µM | 35.1 µM | > 100 µM | 33.9 µM | 30.9 µM | 31.1 µM | 32.3 µM | 34.8 µM
CC1(C)OCC([C@H]2O[C@@H](CC(=S)NCCCCCCCCCCCCNC(=S)C[C@H]3O[C@@H](C4COC(C)(C)O4)[C@H]4OC(C)(C)O[C@H]43)[C@H]3OC(C)(C)O[C@H]32)O1 (some centres undefined) | – | – | > 100 µM | > 100 µM | > 100 µM | – | > 100 µM | 80.2 µM | > 100 µM | > 100 µM | > 100 µM | > 100 µM | > 100 µM
O=C1C(Cl)C2(CC(/C=C/c3ccccc3)=NN2c2cccc(S(=O)(=O)O)c2)N1c1nc2ccccc2s1 (centres undefined) | 32.4 µM | 37.8 µM | 33.8 µM | 25.4 µM | 21.1 µM | 33.3 µM | 36.6 µM | 42.2 µM | 46.6 µM | 34.4 µM | 42.3 µM | – | > 100 µM
CC1=NN(c2nc(N)nc(/C(C#N)=C\c3csc([N+](=O)[O-])c3)n2)C(C)(C)C1 | > 100 µM | – | > 100 µM | > 100 µM | > 100 µM | – | > 100 µM | > 100 µM | > 100 µM | 41.5 µM | 44.7 µM | > 100 µM | > 100 µM
c1cnc2c(c1)ccc1cccnc12 | 5.5 µM | > 83.3 µM | 3.04 µM | > 100 µM | > 100 µM | > 35.3 µM | > 100 µM | 8.37 µM | 7.98 µM | > 100 µM | > 100 µM | > 100 µM | > 100 µM
Fc1ccc(N2C(=S)SC(=Nc3ccccc3)C2=Nc2ccccc2)cc1 | > 46.4 µM | > 100 µM | > 100 µM | > 100 µM | > 100 µM | > 100 µM | > 100 µM | > 100 µM | > 100 µM | > 100 µM | > 100 µM | > 100 µM | > 100 µM
O=C(c1ccccc1)N(C(=O)c1ccccc1)c1nc(SCc2ccccc2)ns1 | 65.3 µM | 40.3 µM | 52.6 µM | 73.6 µM | > 100 µM | 74.8 µM | > 100 µM | 78 µM | 56.2 µM | 71 µM | > 100 µM | 79.1 µM | 93.1 µM
CC1(C)OC(=S)N(c2ccccc2)C12C=Cc1ccccc1O2 (centres undefined) | > 100 µM | > 100 µM | 52.4 µM | > 100 µM | > 100 µM | – | > 100 µM | 76.5 µM | > 100 µM | > 100 µM | > 100 µM | > 100 µM | > 100 µM
Cc1cc(N(CCC#N)CCC#N)ccc1/C(N=Nc1cccc(Cl)c1)=N/NC(=O)c1cc(Cl)ccc1O | 37.2 µM | 17.8 µM | 9.06 µM | 43.1 µM | 10.2 µM | 28.1 µM | > 100 µM | 34.8 µM | 31.9 µM | 46.2 µM | 35.3 µM | > 100 µM | 49.9 µM
C[C@]12C[C@@H](OC(=O)[C@]1(C)O)[C@@H]([C@]1(O)CC[C@H]3[C@@H]4C[C@H]5O[C@]56C[C@H]5O[C@H]5C(=O)[C@]6(C)[C@H]4CC[C@@]31C)C2 | > 50 µM | > 50 µM | > 50 µM | > 50 µM | > 50 µM | > 5 µM | > 50 µM | > 50 µM | > 50 µM | > 50 µM | > 50 µM | > 50 µM | > 50 µM
CC(=O)Oc1ccc(/C=C/C(=O)OCCCOC(=O)/C=C/c2ccc(OC(C)=O)c(OC(C)=O)c2)cc1OC(C)=O | – | > 100 µM | 18.2 µM | > 100 µM | > 100 µM | > 100 µM | > 100 µM | > 100 µM | > 100 µM | > 100 µM | > 100 µM | > 100 µM | > 100 µM
COC(=O)c1ccc2c(c1)S/C(=C/c1ccc3ccc4cccc5ccc1c3c45)S2 | > 100 µM | > 100 µM | 46.9 µM | > 100 µM | > 100 µM | > 100 µM | > 100 µM | > 100 µM | > 100 µM | > 100 µM | > 100 µM | > 100 µM | –
CC1(c2nc3ccccc3[nH]2)CCC(C(=O)O)C(C)(C)O1 (centres undefined) | > 100 µM | > 100 µM | > 100 µM | > 100 µM | > 100 µM | > 100 µM | > 100 µM | > 100 µM | – | > 100 µM | > 100 µM | > 100 µM | > 100 µM
O=c1c2cc(S(=O)(=O)O)ccc2nc(COc2ccc(Oc3ccc(Cl)cc3Cl)cc2)n1-c1ccc(Oc2ccc(Cl)cc2)cc1Cl | > 100 µM | 34 µM | 76 µM | 31.4 µM | 66.2 µM | 85.2 µM | 40.6 µM | 94.9 µM | 32.8 µM | > 100 µM | 17.9 µM | 35.5 µM | –
CCOC(=O)c1sc2nc(SC)nc3c2c1NCN3c1ccc2c(c1)OCO2 | 32.9 µM | > 100 µM | > 100 µM | 32.4 µM | > 100 µM | 53.2 µM | > 100 µM | 78.8 µM | – | 37.2 µM | 10.3 µM | 53.3 µM | > 100 µM
NS(=O)(=O)c1nnc(NS(=O)(=O)C(F)(F)F)s1 | – | > 100 µM | > 100 µM | > 100 µM | – | > 100 µM | > 100 µM | > 100 µM | > 100 µM | > 100 µM | > 100 µM | > 100 µM | > 100 µM
CC(=O)C1=CN=C2C(=O)N(c3ccccc3)N(C)C12C (centres undefined) | > 100 µM | > 100 µM | > 100 µM | > 100 µM | > 100 µM | > 100 µM | > 100 µM | > 100 µM | – | > 100 µM | > 100 µM | > 100 µM | –
Cc1cn(CCCCC2=NCCCN2)c(=O)[nH]c1=O | > 23 µM | > 43.4 µM | > 19.7 µM | 18.3 µM | > 33.8 µM | – | > 34.4 µM | > 37.1 µM | > 67.8 µM | > 35 µM | > 32.6 µM | > 65.5 µM | > 32.9 µM
CCOC(=O)c1nc2cc(C(F)(F)F)ccc2nc1Nc1ccc(OC)cc1 | – | > 100 µM | > 100 µM | > 100 µM | > 100 µM | – | > 100 µM | > 100 µM | – | > 100 µM | > 100 µM | > 100 µM | > 100 µM
